Laboratory results as given in patent US20250092086A1, “CELASTROL SALTS, CRYSTALLINE FORMS, AND USES THEREOF” (ERX Pharmaceuticals Inc., priority 2022, published 2025).
Converted amounts (≈) assume the structure as drawn. “Also recorded” adds a separate entry of the source.

How the values were obtained:
Format in all cases: physicochemical
[1] = pH solubility profile at 37° C. of Compound 1 Form III
Protocol: All the buffer solutions were prepared according to the U.S.P namely hydrochloric acid buffer for pH=2.0, acid phthalate buffer for pH=4.0, phosphate buffer for pH=6.0, alkaline borate buffer for pH=8.0, which correspond to the native pH. At the end of the solubility study, the pH of the solutions were controlled again (final pH) to determine any variation. The solubility was measured at 37° C. The maximum concentration limit was set at 100 g/L max to minimize consumption of the tested compound.

[2] = XRPD under temperature and relative humidity; conditions: for XRPD under temperature: impact / new crystalline phase: 25 to 100° C., RH set at 30%; for XRPD under relative humidity: impact / new crystalline phase: RH 10 to 80-90% at 40° C.
Protocol: Method 1: influence of temperature at ambient RH. RH was set at 30% in order to simulate a RH near from the ambient RH, and the temperature studied were 25-[…]-100° C.
Method 2: influence on RH at 40° C. The RH studied was at 10-30-80%.
These experiments studied the influence of temperature at ambient RH. RH was wet at 30% in order to simulate a RH near from the ambient RH, and the temperatures studied were 25-50-100° C.
These experiments studied the influence on RH at 40° C. The RH studied were 10-30-88%.
Using Method 1, the influence of temperature at ambient RH was studied. RH was set at 30% in order to simulate a RH near from the ambient RH, and the temperatures studied were 25-50-100° C. FIG. 24 provides the XRPD pattern representing the influence of temperature on Compound 1 Form I.
Using Method 2, the influence on RH at 40° C. was studied. The RH studied were 10-30-90%.
Using Method 1, the influence of temperature at ambient RH was studied. RH was set at 30% in order to simulate a RH near from the ambient RH. Temperature studied: 25-50-100° C.
Using Method 2, the influence on RH at 40° C. was studied at 10-30-90%.

[3] = Polymorph screening, cooling experiments (solubility of Form III in screening solvents); conditions: all solvents tested with the exception of dichloromethane, even at high temperature
Protocol: Solutions of Compound 1 Form III were prepared at respectively 50 and 150 g/L in each solvent. Heat was applied when necessary to get a solution. Once a solution was obtained, the vials were cooled down to 10° C.

[4] = Solubility profile of Compound 1 Form III in water, ethanol and methanol; conditions: for solubility: thermodynamic from solid
Protocol: The solubility of Compound 1 Form III was measured in the following solvents: water, ethanol and methanol. The determination of the solubility profile was performed with a Thermomixer Eppendorf driving the temperature and the mixing. The stock solutions were prepared according to the USP (United States Pharmacopeia), and then about 1 mL of these stock solutions was added to the API in tubes of 2 mL.

[5] = Hygroscopicity (DVS), water sorption/desorption at 37° C.; conditions: for DVS (hygroscopicity): water sorption/desorption isotherms at 37° C., 0-95% RH
Protocol: The hygroscopicity experiments were carried out with a DVS Intrinsic from S.M.S. This technique is designed to accurately measure a sample's change in mass as it sorbs precisely controlled concentrations of water vapors in an air carrier gas. The method used for DVS experiments (at 37° C.) is summarized below. • Equilibrating 10 min at 50% RH • Decreasing to 0% RH in 60 min • Equilibrating 10 min at 0% RH • Increasing to 95% RH in 280 min • Equilibrating 10 min at 95% RH • Decreasing to 50% RH in 100 min • Equilibrating 20 min at 50% RH
The hygroscopic experiments were carried out with a DVS Intrinsic from S.M.S. This technique is designed to accurately measure a sample's change in mass as it sorbs precisely controlled concentrations of water vapors in an air carrier gas. All the methods used for DVS experiments are summarized below. It should be noticed that the temperature and relative humidity (RH) are pre-set according to the initial temperature and RH.
• Equilibrating 120 min at 50% RH • Decreasing to 0% RH in 60 min • Equilibrating 150 min at 0% RH • Increasing to 95% RH in 200 min • Equilibrating 360 min at 95% RH • Decreasing to 50% RH in 100 min • Equilibrating 150 min at 50% RH
The hygroscopicity experiments were carried out with a DVS Intrinsic from S.M.S. This technique is designed to accurately measure a sample's change in mass as it sorbs precisely controlled concentrations of water vapors in an air carrier gas. All the methods used for DVS experiments are summarized below, and it should be noticed that the temperature and relative humidity (RH) are pre-set according to the initial temperature and RH.
The hygroscopicity experiments were carried out with a DVS Intrinsic from S.M.S. This technique is designed to accurately measure a sample's change in mass as it sorbs precisely controlled concentrations of water vapors in an air carrier gas. All the methods used for DVS experiments are summarized below. It should be noticed that the temperature and relative humidity (RH) are pre-set according to the initial temperature and RH.

## CC1=C(O)C(=O)C=C2C1=CC=C1[C@@]2(C)CC[C@@]2(C)[C@@H]3C[C@](C)(C(=O)O)CC[C@]3(C)CC[C@]12C [Compound 1 Form III, 3-hydroxy-9β,13α-dimethyl-2-oxo-24,25,26-trinoroleana-1(10),3,5,7-tetraen-29-oic acid]
[1]; USP buffer solutions, aqueous buffer, thermodynamic from solid, USP buffers, native pH 2.0, 4.0, 6.0 and 8.0, read-out: Solubility range
  solubility: < 1 mg/mL
[1]; pH 2.0 to 8.0
  pH solubility profile, description form: very slight solubility; also recorded: Very slightly
[1]; pH 2.0 to 8.0, listed as Form III
  pH solubility profile, description form: From pH = 2 to pH = 8: very slightly soluble
[2]
  XRPD under temperature: impact / new crystalline phase: stable
  XRPD under relative humidity: impact / new crystalline phase: stable
[2]; listed as FIII
  XRPD under temperature: impact / new crystalline phase: =>No new crystalline
  XRPD under relative humidity: impact / new crystalline phase: =>No new crystalline
[3]
  Solubility in the screening solvents: low solubility
[4]; 30 °C, water, 10, 30 and 50° C.
  solubility: < 1 mg/mL
[4]; ethanol
  Solubility profile: ethanol (description): Ethanol: Soluble
[4]; methanol
  Solubility profile: methanol (description): Methanol: Sparingly Soluble
[4]; organic solvent or mixture, ethanol, 10° C.
  solubility: 33 to 38 mg/mL (≈ 73.2 to 84.3 mM)
[4]; organic solvent or mixture, ethanol, 30° C.
  solubility: 33 to 38 mg/mL (≈ 73.2 to 84.3 mM)
[4]; organic solvent or mixture, ethanol, 50° C.
  solubility: 33 to 38 mg/mL (≈ 73.2 to 84.3 mM)
[4]; organic solvent or mixture, methanol, 10° C.
  solubility: 27 to 33 mg/mL (≈ 59.9 to 73.2 mM)
[4]; organic solvent or mixture, methanol, 30° C.
  solubility: 27 to 33 mg/mL (≈ 59.9 to 73.2 mM)
[4]; organic solvent or mixture, methanol, 50° C.
  solubility: 27 to 33 mg/mL (≈ 59.9 to 73.2 mM)
[4]; water
  Solubility profile: water (description): Water: Very slightly soluble
[5]; DVS, 37° C.
  Hysteresis observed with the final mass at 50% RH: No hysteresis
  Mass decrease as RH was lowered to 0%: ~0.06%
  Mass increase as RH was increased to 95%: ~0.09%
  Water uptake, water sorption/desorption isotherms: < 0.2%
[5]
  DVS (hygroscopicity): non-hygroscopic
[5]; listed as FIII
  DVS (hygroscopicity): Not hygroscopic
[5]; listed as Form III
  DVS (hygroscopicity): nonhygroscopicity; also recorded: Non hygroscopic compound
